Measurements as given in ChEMBL document CHEMBL3046368, “Synthesis of benzothiazole derivatives and their biological evaluation as anticancer agents” (2012).
Calls of active or inactive are those of the source. The calls are words filed in the database; no cut-off is given here.

Legend:
[1] = target: T1, Ubiquitin-like modifier-activating enzyme 1 (Homo sapiens) (UniProt P22314); assay: Inhibition of ubiquitin displacement on His6-tagged E2 enzyme from His6-tagged UBA1 (unknown origin) at 10 uM after 1.5 hr by SDS-PAGE analysis
T1 sequence (whole entry): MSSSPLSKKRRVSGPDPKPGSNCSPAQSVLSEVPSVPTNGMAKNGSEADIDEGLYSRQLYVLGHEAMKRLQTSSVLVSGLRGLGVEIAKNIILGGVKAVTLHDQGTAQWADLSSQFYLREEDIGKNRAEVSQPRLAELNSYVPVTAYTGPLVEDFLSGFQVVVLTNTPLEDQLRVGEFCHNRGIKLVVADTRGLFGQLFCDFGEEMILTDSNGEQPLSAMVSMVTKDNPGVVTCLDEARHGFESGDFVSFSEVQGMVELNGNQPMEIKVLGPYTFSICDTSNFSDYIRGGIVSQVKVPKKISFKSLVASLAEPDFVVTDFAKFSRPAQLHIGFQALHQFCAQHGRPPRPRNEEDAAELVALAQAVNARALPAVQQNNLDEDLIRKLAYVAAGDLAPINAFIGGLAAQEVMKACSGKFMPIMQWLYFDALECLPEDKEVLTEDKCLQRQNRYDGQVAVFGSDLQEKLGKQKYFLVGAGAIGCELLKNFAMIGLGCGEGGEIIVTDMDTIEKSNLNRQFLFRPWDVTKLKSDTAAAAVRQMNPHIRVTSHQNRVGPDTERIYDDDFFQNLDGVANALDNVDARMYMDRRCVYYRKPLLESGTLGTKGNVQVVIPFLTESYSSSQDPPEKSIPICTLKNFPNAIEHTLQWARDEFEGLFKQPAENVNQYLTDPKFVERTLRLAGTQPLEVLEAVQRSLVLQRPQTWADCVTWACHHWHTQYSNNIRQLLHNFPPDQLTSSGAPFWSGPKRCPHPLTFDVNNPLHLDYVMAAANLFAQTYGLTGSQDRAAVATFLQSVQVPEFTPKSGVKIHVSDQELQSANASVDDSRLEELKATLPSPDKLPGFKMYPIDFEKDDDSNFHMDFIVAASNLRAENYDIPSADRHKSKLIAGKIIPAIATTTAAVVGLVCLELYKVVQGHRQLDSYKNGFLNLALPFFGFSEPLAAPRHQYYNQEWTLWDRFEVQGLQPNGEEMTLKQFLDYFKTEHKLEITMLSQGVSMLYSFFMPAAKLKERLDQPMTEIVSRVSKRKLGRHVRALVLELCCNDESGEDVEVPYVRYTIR

[2] = Cytotoxicity against Homo sapiens (human) breast cancer cells assessed as cell growth at 10^-5 M after 48 hr by SRB assay relative to control; type: functional; conditions: Cancer cell lines, read-out: Activity
[3] = Cytotoxicity against Homo sapiens (human) prostate cancer cells assessed as cell growth at 10^-5 M after 48 hr by SRB assay relative to control; type: functional; conditions: Cancer cell lines, read-out: Activity
[4] = Cytotoxicity against Homo sapiens (human) renal cancer cells assessed as cell growth at 10^-5 M after 48 hr by SRB assay relative to control; type: functional; conditions: Cancer cell lines, read-out: Activity
[5] = Cytotoxicity against Homo sapiens (human) ovarian cancer cells assessed as cell growth at 10^-5 M after 48 hr by SRB assay relative to control; type: functional; conditions: Cancer cell lines, read-out: Activity
[6] = Cytotoxicity against Homo sapiens (human) melanoma cells assessed as cell growth at 10^-5 M after 48 hr by SRB assay relative to control; type: functional; conditions: read-out: Activity
[7] = Cytotoxicity against Homo sapiens (human) CNSC cells assessed as cell growth at 10^-5 M after 48 hr by SRB assay relative to control; type: functional; conditions: read-out: Activity
[8] = Cytotoxicity against Homo sapiens (human) colon cancer cells assessed as cell growth at 10^-5 M after 48 hr by SRB assay relative to control; type: functional; conditions: Cancer cell lines, read-out: Activity
[9] = Cytotoxicity against Homo sapiens (human) NSCLC cells assessed as cell growth at 10^-5 M after 48 hr by SRB assay relative to control; type: functional; conditions: read-out: Activity
[10] = Cytotoxicity against Homo sapiens (human) leukemia cells assessed as cell growth at 10^-5 M after 48 hr by SRB assay relative to control; type: functional; conditions: read-out: Activity
MCF7 = assay: Cytotoxicity against Homo sapiens (human) MCF7 cells after 48 hr by SRB assay; type: functional; conditions: MCF7, 48 h
SN12C = assay: Cytotoxicity against Homo sapiens (human) SN12C cells after 48 hr by SRB assay; type: functional
A498 = assay: Cytotoxicity against Homo sapiens (human) A498 cells after 48 hr by SRB assay; type: functional; conditions: A498, 48 h
OVCAR-3 = assay: Cytotoxicity against Homo sapiens (human) OVCAR3 cells after 48 hr by SRB assay; type: functional; conditions: OVCAR-3, 48 h
SNB-75 = assay: Cytotoxicity against Homo sapiens (human) SNB75 cells after 48 hr by SRB assay; type: functional; conditions: SNB-75, 48 h
SF-539 = assay: Cytotoxicity against Homo sapiens (human) SF539 cells after 48 hr by SRB assay; type: functional; conditions: SF-539, 48 h
SF-268 = assay: Cytotoxicity against Homo sapiens (human) SF268 cells after 48 hr by SRB assay; type: functional; conditions: SF-268, 48 h
COLO 205 = assay: Cytotoxicity against Homo sapiens (human) COLO205 cells after 48 hr by SRB assay; type: functional; conditions: COLO 205, 48 h
RPMI-8226 = assay: Cytotoxicity against Homo sapiens (human) RPMI8226 cells after 48 hr by SRB assay; type: functional; conditions: RPMI-8226, 48 h
HOP-62 = assay: Cytotoxicity against Homo sapiens (human) HOP62 cells after 48 hr by SRB assay; type: functional; conditions: HOP-62, 48 h

SMILES: O=C(Nc1nc2ccc(OC(F)(F)F)cc2s1)c1c(F)cccc1F
- inhibition [1]: inactive

SMILES: COc1ccc2nc(NC(=O)c3ccc(C#N)cc3)sc2c1
- inhibition [1]: inactive

SMILES: COc1ccc2nc(NC(=O)Nc3ccc(F)cc3)sc2c1
- inhibition [1]: inactive

SMILES: COc1ccc2nc(NC(=O)c3c(F)cccc3F)sc2c1
- inhibition [1]: inactive

SMILES: COc1ccc2nc(NC(=O)c3ccc(NC(C)=O)cc3)sc2c1
- inhibition [1]: inactive

SMILES: COc1ccc(NC(=O)Nc2nc3ccc(OC(F)(F)F)cc3s2)cc1
- inhibition [1]: inactive
- growth at 10 µM [2]: 97.8%
- growth at 10 µM [3]: 95.3%
- growth at 10 µM [4]: 99.4%
- growth at 10 µM [5]: 97.5%
- growth at 10 µM [6]: 104%
- growth at 10 µM [7]: 103%
- growth at 10 µM [8]: 101%
- growth at 10 µM [9]: 95.8%
- growth at 10 µM [10]: 87%

SMILES: O=C(Nc1nc2ccc(OC(F)(F)F)cc2s1)c1ccc(F)cc1
- inhibition [1]: inactive

SMILES: COc1ccc2nc(NC(=O)c3ccc(F)cc3)sc2c1
- inhibition [1]: inactive

SMILES: COc1ccc2nc(NC(=O)Nc3c(F)cccc3F)sc2c1
- inhibition [1]: inactive
- growth at 10 µM [2]: 107%
- growth at 10 µM [3]: 100%
- growth at 10 µM [4]: 97.9%
- growth at 10 µM [5]: 108%
- growth at 10 µM [6]: 102%
- growth at 10 µM [7]: 104%
- growth at 10 µM [8]: 107%
- growth at 10 µM [9]: 99.2%
- growth at 10 µM [10]: 91.2%

SMILES: COc1ccc(C(=O)Nc2nc3ccc(OC)cc3s2)cc1
- inhibition [1]: inactive

SMILES: COc1ccc(C(=O)Nc2nc3ccc(OC(F)(F)F)cc3s2)cc1
- inhibition [1]: inactive

SMILES: COc1ccc(NC(=O)Nc2nc3ccc(OC)cc3s2)cc1
- inhibition [1]: inactive

SMILES: N#Cc1ccc(C(=O)Nc2nc3ccc(OC(F)(F)F)cc3s2)cc1
- inhibition [1]: inactive

SMILES: O=C(Nc1nc2ccc(OC(F)(F)F)cc2s1)Nc1c(F)cccc1F
- inhibition [1]: inactive
- growth at 10 µM [2]: 89.5%
- growth at 10 µM [3]: 83.8%
- growth at 10 µM [4]: 89.4%
- growth at 10 µM [5]: 90.2%
- growth at 10 µM [6]: 89.6%
- growth at 10 µM [7]: 96%
- growth at 10 µM [8]: 91.8%
- growth at 10 µM [9]: 77.6%
- growth at 10 µM [10]: 64.4%

SMILES: COc1ccc2nc(NC(=O)Nc3ccc(C#N)cc3)sc2c1
- inhibition [1]: inactive

SMILES: CC(=O)Nc1ccc(C(=O)Nc2nc3ccc(OC(F)(F)F)cc3s2)cc1
- inhibition [1]: inactive

SMILES: O=c1[nH]cc(F)c(=O)[nH]1 [FLUOROURACIL]
- GI50 (MCF7): 79.4 nM
- GI50 (SN12C): 501 nM
- GI50 (A498): 398 nM
- GI50 (OVCAR-3): 15.8 nM
- GI50 (SNB-75): 79400 nM
- GI50 (SF-539): 63.1 nM
- GI50 (SF-268): 1580 nM
- GI50 (COLO 205): 158 nM
- GI50 (RPMI-8226): 44.7 nM
- GI50 (HOP-62): 398 nM
